In patent US8986696B2, “Trans-capsular administration of p38 map kinase inhibitors into orthopedic joints” (DePuy Mitek, Inc., priority 2007, dated 2015):

How the values were obtained:
[1] = tested on: rabbit anterior cruciate ligament transection (ACLT) model of osteoarthritis; assay: ACLT model, SCIO-469 (Example VIII); format: in vivo
Method: The formulation of the highest concentration was diluted into the lower concentrations using ORTHOVISC®. Once prepared, the formulations were stored at 4° C. The study design consisted of an n=12 per group. The SCIO-469 (SD 469) was suspended in ORTHOVISC®. A total of 160 μl was injected at each administration. The intra-articular injections were performed according to the ACLT model. However, control groups either received no injections or received the ORTHOVISC® vehicle delivered once weekly for three weeks. Euthanasia was performed according to the ACLT model. However, the animals were euthanized nine weeks post ACLT with an intravenous injection of pentobarbital (60 mg/kg). […] At the time of sacrifice the following parameters were evaluated grossly (the scale follows in parenthesis): Each parameter was given a score. The combination of all parameters gave a Total Score (0-52). […] Lastly, an All Cartilage Effects Score was obtained. The score for All Cartilage Effects ranges from 0 to 40. The grades that compose this parameter are trochlear groove thickness and erosion, all the grades in All Condylar Effects, and all grades listed under tibial plateau. A higher score indicates more damage to the joint. A lower score indicates less damage or more cartilage preservation to the joint. Individual results for each parameter assessed were tabulated (data not shown).

[2] = drug content in the joints (Example VIII); format: in vivo, rabbit; conditions: at the time of analysis
Source text: For each treatment group, four animals were included to provide pharmacokinetic data (available drug levels in blood and tissue). Prior to treatment administration, blood samples were collected and frozen for analysis. After gross observation, the joints were removed and frozen for analysis.

[3] = tested on: IL-1β-stimulated GAG release, bovine chondrocyte pellets / ARC tissues; assay: chondrocyte pellet culture model: GAG degradation; format: cell-based
Source text: (§1) Calf articular cartilage was obtained from the knee joints of eight to twelve month old animals and was processed within twenty-four hours after sacrifice. After removal of muscle and ligament, the cartilage was kept moist using phosphate buffer solution (PBS) to prevent tissue dehydration, and was aseptically peeled off from subchondral bone with a scalpel, and the cartilage pieces were further minced into smaller pieces (˜0.3-0.5×˜0.2-0.5 cm cubes). […] Chondrocytes were then enzymatically isolated from the tissue by incubation for overnight at 37° C. with gentle agitation in 0.2% collagenase in Dulbecco's modified eagle media (DMEM). After removal of tissue debris by filtration through cell strainer and the residual collagenase by 3× wash in PBS, cells were finally resuspended at a density of 2.5×10^6 cells/ml in chondrocyte medium. A 1 ml aliquot of the cell suspension was dispensed into either a 15 ml Falcon centrifuge tube or a 96 deep-well plate and centrifuged at 2000×g for five minutes. The chondrocyte pellets were incubated at 37° C. in a humidified atmosphere of 5% CO2 for two to three weeks with a medium change every other day.
(§2) As an alternative to using calf articular cartilage, a commercial Alginate Recovered Chondrocytes (ARC) system was also used (Articular Engineering, LLC (Northbrook, Ill.)). Use of the commercial system cut down on labor and time in producing chondrocyte pellet. This system produced cartilaginous tissue in vitro using bovine chondrocytes. The first step consisted of culturing chondrocytes in alginate under conditions optimal for the formation of a cell-associated matrix (CM). The second step allowed these cells with their CM, after recovery, to rapidly form and become integrated into a solid mass of cartilage on a porous insert within two weeks. This tissue is rich in cells surrounded by a cell-associated matrix that is degraded rapidly when the cells are exposed to IL-1. ARC tissues in 3 mm punches at delivery were first dispensed into a 96 deep-well plate, one punch per well, for compound treatment. The subsequent procedures were the same as those used for the chondrocyte pellets.
(§3) Chondrocyte pellets were washed once with 1 ml of Chondrocyte Stimulation Medium and equilibrated in the same medium at room temperature for fifteen to thirty minutes. Compounds were dissolved in H2O, Ethanol or dimethyl sulfoxide (DMSO) (10^−2 M) according to suppliers' instructions and further diluted with Chondrocyte Stimulation Medium to the required concentrations. DMSO concentrations in the culture media should not exceed 1%; this concentration of DMSO has no effect on cartilage proteoglycan metabolism in response to cytokines.
[…] At the end of the incubation, media and pellets were harvested and frozen for further analysis. Pellets were also fixed as needed in 4% (w/v) paraformaldehyde in PBS for histology analysis.
Glycosaminoglycan (GAG) levels in the culture media were determined by measuring the amount of polyanionic material reacting with 1,9-dimethylmethylene blue (DME) as detected by absorbance at 525 nm, using shark chondroitin sulfate as a standard. The DME blue dye-binding solution was prepared by dissolving 16 mg of DME blue in a solution containing 0.304% glycine, 0.23% sodium chloride (NaCl), 9.5 mM hydrochloric acid (HCl), pH=3.0 with absorbance at 525 equal to 0.31. Proteoglycans and proteoglycan metabolites in chondrocyte pellet were released by digesting the pellet with 125 μg/ml of papain in 0.1 M PBS, pH 6.0, 5 mM cysteine, 5 mM ethylene-diamine-tetra-acetic acid disodium salt (Na2EDTA) at 50° C. for overnight. Results are reported as either micrograms of GAG per milliliter or percent of total GAG released into culture medium.

chondrocytes = format: cell-based; conditions: bovine, 100000 nM
Source text: as §1, §2, §3
The pellets were first treated with compounds at desired concentrations at 37° C. for one hour and then incubated for three to five days in the absence or presence of 10 ng/ml of IL-1β. At the end of the incubation, media and pellets were harvested and frozen for further analysis. Pellets were also fixed as needed in 4% (w/v) paraformaldehyde in PBS for histology analysis.
The LDH activity was determined colorimetrically in an enzymatic test based on the conversion of lactic acid to pyruvate in the presence of chromagenic substrate tetrazolium salt INT that was reduced to formazan.

C[C@@H]1CN(Cc2ccc(F)cc2)[C@@H](C)CN1C(=O)c1cc2c(C(=O)C(=O)N(C)C)cn(C)c2cc1Cl [SCIO-469 (SD 469)]
All Cartilage Effects (0-40), mean ([1]; 0.5 μg/kg): 12.75 | All Condylar Effects (0-18), mean ([1]; 0.5 μg/kg): 6.45 | All Tibial Plateau Effects (0-24), mean ([1]; 0.5 μg/kg): 7.20 | All Trochlear Groove Effects (0-10), mean ([1]; 0.5 μg/kg): 8.40 | Femoral Condyle % Surface Area Erosion (Lateral), mean score ([1]; 0.5 μg/kg): 2.80 | Femoral Condyle % Surface Area Erosion (Medial), mean score ([1]; 0.5 μg/kg): 0.90 | Femoral Condyle Depth of Erosion (Lateral), mean score ([1]; 0.5 μg/kg): 2.00 | Femoral Condyle Depth of Erosion (Medial), mean score ([1]; 0.5 μg/kg): 0.55 | Femoral Condyle Presence of Clefts, mean score ([1]; 0.5 μg/kg): 0.20 | Tibial Plateau # of Osteophytes (Lateral), mean score ([1]; 0.5 μg/kg): 1.50 | Tibial Plateau # of Osteophytes (Medial), mean score ([1]; 0.5 μg/kg): 1.80 | Tibial Plateau % Surface Area Erosion (Lateral), mean score ([1]; 0.5 μg/kg): 2.00 | Tibial Plateau % Surface Area Erosion (Medial), mean score ([1]; 0.5 μg/kg): 0 | Tibial Plateau Depth of Erosion (Lateral), mean score ([1]; 0.5 μg/kg): 1.90 | Tibial Plateau Depth of Erosion (Medial), mean score ([1]; 0.5 μg/kg): 0 | Tibial Plateau Presence of Clefts (Lateral), mean score ([1]; 0.5 μg/kg): 0 | Tibial Plateau Presence of Clefts (Medial), mean score ([1]; 0.5 μg/kg): 0 | Total Score (0-52), mean ([1]; 0.5 μg/kg): 22.05 | Trochlear Groove # of Osteophytes, mean score ([1]; 0.5 μg/kg): 3.00 | Trochlear Groove Erosion of Cartilage, mean score ([1]; 0.5 μg/kg): 2.40 | Trochlear Groove Osteophyte Size, mean score ([1]; 0.5 μg/kg): 3.00 | Trochlear Groove Thickening, mean score ([1]; 0.5 μg/kg): 0 | All Cartilage Effects (0-40), mean ([1]; 5 μg/kg): 13.17 | All Condylar Effects (0-18), mean ([1]; 5 μg/kg): 6.50 | All Tibial Plateau Effects (0-24), mean ([1]; 5 μg/kg): 7.08 | All Trochlear Groove Effects (0-10), mean ([1]; 5 μg/kg): 8.08 | Femoral Condyle % Surface Area Erosion (Lateral), mean score ([1]; 5 μg/kg): 1.67 | Femoral Condyle % Surface Area Erosion (Medial), mean score ([1]; 5 μg/kg): 1.67 | Femoral Condyle Depth of Erosion (Lateral), mean score ([1]; 5 μg/kg): 1.96 | Femoral Condyle Depth of Erosion (Medial), mean score ([1]; 5 μg/kg): 1.21 | Femoral Condyle Presence of Clefts, mean score ([1]; 5 μg/kg): 0 | Tibial Plateau # of Osteophytes (Lateral), mean score ([1]; 5 μg/kg): 1.08 | Tibial Plateau # of Osteophytes (Medial), mean score ([1]; 5 μg/kg): 1.67 | Tibial Plateau % Surface Area Erosion (Lateral), mean score ([1]; 5 μg/kg): 1.50 | Tibial Plateau % Surface Area Erosion (Medial), mean score ([1]; 5 μg/kg): 0.58 | Tibial Plateau Depth of Erosion (Lateral), mean score ([1]; 5 μg/kg): 1.63 | Tibial Plateau Depth of Erosion (Medial), mean score ([1]; 5 μg/kg): 0.63 | Tibial Plateau Presence of Clefts (Lateral), mean score ([1]; 5 μg/kg): 0 | Tibial Plateau Presence of Clefts (Medial), mean score ([1]; 5 μg/kg): 0 | Total Score (0-52), mean ([1]; 5 μg/kg): 21.67 | Trochlear Groove # of Osteophytes, mean score ([1]; 5 μg/kg): 2.83 | Trochlear Groove Erosion of Cartilage, mean score ([1]; 5 μg/kg): 2.17 | Trochlear Groove Osteophyte Size, mean score ([1]; 5 μg/kg): 2.92 | Trochlear Groove Thickening, mean score ([1]; 5 μg/kg): 0.17 | All Cartilage Effects (0-40), mean ([1]; 50 μg/kg): 8.32 | All Condylar Effects (0-18), mean ([1]; 50 μg/kg): 4.18 | All Tibial Plateau Effects (0-24), mean ([1]; 50 μg/kg): 5.41 | All Trochlear Groove Effects (0-10), mean ([1]; 50 μg/kg): 6.91 | Femoral Condyle % Surface Area Erosion (Lateral), mean score ([1]; 50 μg/kg): 1.18 | Femoral Condyle % Surface Area Erosion (Medial), mean score ([1]; 50 μg/kg): 1.27 | Femoral Condyle Depth of Erosion (Lateral), mean score ([1]; 50 μg/kg): 1.05 | Femoral Condyle Depth of Erosion (Medial), mean score ([1]; 50 μg/kg): 0.68 | Femoral Condyle Presence of Clefts, mean score ([1]; 50 μg/kg): 0 | Tibial Plateau # of Osteophytes (Lateral), mean score ([1]; 50 μg/kg): 0.91 | Tibial Plateau # of Osteophytes (Medial), mean score ([1]; 50 μg/kg): 1.73 | Tibial Plateau % Surface Area Erosion (Lateral), mean score ([1]; 50 μg/kg): 1.09 | Tibial Plateau % Surface Area Erosion (Medial), mean score ([1]; 50 μg/kg): 0.36 | Tibial Plateau Depth of Erosion (Lateral), mean score ([1]; 50 μg/kg): 1.14 | Tibial Plateau Depth of Erosion (Medial), mean score ([1]; 50 μg/kg): 0.18 | Tibial Plateau Presence of Clefts (Lateral), mean score ([1]; 50 μg/kg): 0 | Tibial Plateau Presence of Clefts (Medial), mean score ([1]; 50 μg/kg): 0 | Total Score (0-52), mean ([1]; 50 μg/kg): 16.50 | Trochlear Groove # of Osteophytes, mean score ([1]; 50 μg/kg): 2.64 | Trochlear Groove Erosion of Cartilage, mean score ([1]; 50 μg/kg): 1.36 | Trochlear Groove Osteophyte Size, mean score ([1]; 50 μg/kg): 2.91 | Trochlear Groove Thickening, mean score ([1]; 50 μg/kg): 0 | utility in ACLT model, gross observations ([1]; 0.5, 5 or 50 μg/kg, direct injection into a diseased joint): did not demonstrate the utility | drug content in the joints [2]: no drug could be detected | inhibition of GAG degradation ([3]; ARC tissues stimulated with IL-1β): no effect | GAG Release ([3]; Pellet Assay): No effect | increase of LDH level (chondrocytes): 121%
